Like-named read-outs stand apart in the source and are kept apart here.

The target in one assay is T1, Gli1 (Homo sapiens, UniProt P08151).
T1 construct: expressed in transfected cells; host or cells: NIH-3T3 (mouse fibroblasts)
T1 sequence (P08151 1-1106): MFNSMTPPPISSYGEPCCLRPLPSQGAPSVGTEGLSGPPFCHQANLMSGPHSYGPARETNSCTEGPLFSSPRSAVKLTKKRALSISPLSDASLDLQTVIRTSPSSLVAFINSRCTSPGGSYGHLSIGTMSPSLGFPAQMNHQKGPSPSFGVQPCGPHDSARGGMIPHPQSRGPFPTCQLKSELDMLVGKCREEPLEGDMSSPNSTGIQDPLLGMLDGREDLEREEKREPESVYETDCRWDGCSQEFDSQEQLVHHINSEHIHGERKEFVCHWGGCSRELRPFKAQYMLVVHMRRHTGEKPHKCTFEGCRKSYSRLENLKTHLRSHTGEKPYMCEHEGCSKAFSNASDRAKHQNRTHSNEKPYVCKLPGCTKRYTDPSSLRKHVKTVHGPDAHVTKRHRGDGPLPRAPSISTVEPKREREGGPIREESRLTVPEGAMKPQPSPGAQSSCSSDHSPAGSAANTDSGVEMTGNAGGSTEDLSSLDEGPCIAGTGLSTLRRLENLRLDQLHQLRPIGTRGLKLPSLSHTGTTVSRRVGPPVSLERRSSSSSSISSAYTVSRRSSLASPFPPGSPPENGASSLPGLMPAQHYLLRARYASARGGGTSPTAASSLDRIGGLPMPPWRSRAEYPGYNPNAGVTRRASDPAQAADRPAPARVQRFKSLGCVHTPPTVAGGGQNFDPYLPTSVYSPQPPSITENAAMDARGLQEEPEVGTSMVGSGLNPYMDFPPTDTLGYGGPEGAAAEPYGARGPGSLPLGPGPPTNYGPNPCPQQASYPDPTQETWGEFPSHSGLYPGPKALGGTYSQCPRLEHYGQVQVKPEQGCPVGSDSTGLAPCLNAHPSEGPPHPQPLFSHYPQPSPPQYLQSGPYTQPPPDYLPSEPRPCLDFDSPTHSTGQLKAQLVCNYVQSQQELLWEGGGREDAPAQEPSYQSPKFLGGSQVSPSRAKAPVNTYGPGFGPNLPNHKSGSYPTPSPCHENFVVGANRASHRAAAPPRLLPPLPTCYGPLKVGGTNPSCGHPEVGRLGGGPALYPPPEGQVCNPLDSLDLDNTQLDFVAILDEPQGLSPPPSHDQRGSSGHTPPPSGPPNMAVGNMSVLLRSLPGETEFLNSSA
Briefly: Overexpression of Gli1 in NIH-3T3 cells, firefly luciferase reporter. In kind it is cell-based. The protocol: NIH-3T3 cells were obtained from ATCC and cultured in DMEM (Invitrogen, 11965) containing 10% (v/v) calf serum (ATCC, 30-2030), 1 mM sodium pyruvate (Invitrogen, 11360) and 1× PenStrep (Gibco, 15140).
(§1) All test compounds were dissolved in DMSO at 50 mM, serially diluted by 1:3, 1:4 or 1:5 in a 96-well translucent microplate (Greiner bio-one, 650201) and stored at −20° C. These serial dilutions were added to assay media freshly with final DMSO concentration of 0.2% (v/v).
Overexpression of Gli1 or Gli2 in NIH-3T3 cells provides a measure of Gli1- or Gli1/Gli2-induced pathway activity, respectively. NIH 3T3 cells were seeded into a 24-well plate (35,000 cells/well) and cultured for 30 hrs. […] The cells were lysed with passive lysis buffer (200 μL/well), and 10 μL of the obtained lysate were analyzed for firefly and Renilla luciferase activities using Dual-Luciferase Reporter Assay System (Promega, E1960) (50 μL/well of each reagent) on a microplate luminometer (Veritas). Biological triplicates were analyzed for each test compounds.

Another assay relates to Hh pathway activity. Briefly: Sufu-KO-LIGHT cell assay, Gli-dependent firefly luciferase reporter. Type of assay: cell-based, mouse. The settings on record: for IC50: Mus musculus. On the procedure:
Sufu-KO-LIGHT cells were derived from Sufu knockout mouse embryonic fibroblasts according to the method of Chen et al. [Genes Dev. 2009; 23(16):1910-28.] The cells were co-transfected with the zeocin resistance vector (pVgRXR, Invitrogen) and a firefly luciferase reporter driven by eight Gli binding sites and a γ-crystallin basal promoter (8XGliBS-FL) [see Sasaki et al. Development. 1997; 124(7):1313-22.2]. […] Sufu-KO-LIGHT cells were cultured in DMEM (Invitrogen, 11965) containing 10% (v/v) fetal bovine serum (Invitrogen, No. 26140), 150 μg/mL zeocin (Invitrogen, R250-01), 1 mM sodium pyruvate (Invitrogen, 11360) and 1× PenStrep (Gibco, 15140).
as §1
The Sufu-KO-LIGHT cell assay provides a measure of Hh pathway activity and cytotoxicity. Sufu-KO-LIGHT cells were seeded into a 96-well plate (35,000 cells/well), cultured to confluency for 24 hrs and then incubated with test compounds in DMEM without phenol red (Invitrogen, 26140) containing 0.5% (v/v) fetal bovine serum (Invitrogen, No. 26140), 150 μg/mL zeocin (Invitrogen, R250-01), 1 mM sodium pyruvate (Invitrogen, 11360), 1× PenStrep (Gibco, 15140) for 16 hrs. Bright Glo (Promega, E2620) reagent (50 μL/well) was added to the cells, and luciferase activities were determined on a microplate luminometer (Veritas). To assess cytotoxicity, after 15 hrs of incubation with test compounds, CellTiter 96 AQueous One Solution Cell Proliferation Assay (Promega, G3580) reagent (20 μL/well) was added. Cell viability was determined by measuring absorption at 490 nm after 1 hr of incubation on a microplate spectrophotometer (Benchmark Plus, Bio-Rad). Biological triplicates were analyzed for each test compounds.

For another assay, the system named is Gli3. Briefly: Hh ligand-dependent Gli3 processing in Shh-EGFP cells. Type of assay: cell-based.

Method for Gli3: Each compound or vehicle treatment was conducted in the presence or absence of 10% (v/v) Shh-N-conditioned medium. The cells were then lysed by incubation with SDS-PAGE loading buffer composed of 50 mM Tris-HCl, pH 6.8, 2% (w/v) SDS, 8% (v/v) glycerol, 100 mM DTT, 0.1 mg/mL bromophenol blue, EDTA-free protease inhibitor cocktail (Roche) and Phosstop (Roche) for 5 min in a cold room. […] The membranes were dehydrated with methanol and probed overnight at 4° C. with goat polyclonal anti-Gli3 antibody (1 μg/mL; R & D Systems, AF3690) in PBS containing 4% (w/v) non-fat dry milk and 0.01% (v/v) Tween-20 (immunoblot blocking buffer). […] Band intensities of Gli3FL and Gli3R were quantified using ImageJ64 software (NIH), and three independent experiments were used to determine the average Gli3FL/Gli3R ratio for each compound.

As to `CCOc1ccc(-[n+]2cc(-c3ccc(Br)cc3)n3c2CCCCC3)cc1` [Compound A-1], the “Exogenous Gli1 activity” value on Gli1 is on record as “potently blocked”. In addition, the half-maximal inhibitory concentration (IC50) was determined as 1.42 ± 0.96 µM in the assay with Hh pathway activity and 1.42 ± 0.96 µM with Hh pathway activity (read-out: IC50, firefly luciferase). Also, the “Inhibition of Hh pathway activity” value in the assay on Hh pathway activity (Sufu-KO-LIGHT cells) is “inhibits Hh pathway activity”. For the same compound, the “Effect on Gli3FL phosphorylation” value with Gli3 was “Nor did the compound prevent Gli3FL phosphorylation”. Also, the “Effect on Gli3 processing, Gli3FL/Gli3R ratio” value in the assay on Gli3 (ShhN stimulation) is reported as “did not perturb Gli3 processing”.

Source of the values: patent publication US9611276B2, “Imidazo bicyclic iminium compounds as antitumor agents” (THE BOARD OF TRUSTEES OF THE LELAND STANFORD JUNIOR …, priority 2012, dated 2017).
